Measured values: patent US5034510A, “Antibacterial substance” (Shin-Etsu Chemical Co., Ltd., priority 1986, dated 1991)
Where no end group is shown, it is not given here.

Columns and labels:
Assay in all cases: MIC by broth dilution method
Format in all cases: cell-based
Proteus mirabilis 129 = conditions: P. mira 129
Procedure: (§1) Using the substances finally obtained in the above-described Experiments 35 to 42 and having no blocking group, MIC (minimum growth inhibitory concentration) against various bacteria was examined according to the broth dilution method, and the antibacterial activities were evaluated.
(§2) H--(1-23)--NH(CH2)7 CH3 was synthesized according to the same procedures as described in Experiments 1 to 35, and the antibacterial activities thereof against various bacteria were examined in the same manner as in Example 1.

Escherichia coli NIHJ = conditions: E. coli NIHJ
Procedure: as §1, §2

[1] = system: Enterobacter aerogenes IFO 13545; conditions: E. aero 13534
Procedure: as §1, §2

Pseudomonas aeruginosa = conditions: P. aeru
Procedure: as §1, §2

[2] = system: Bacillus subtilis PCI 219; conditions: B. sub 219
Procedure: as §1, §2

[3] = system: Staphylococcus aureus FDA 209P; conditions: S. aure 209-P
Procedure: as §1, §2

E. coli JC-2 = system: E. coli JC-2
Procedure: as §1, §2

Proteus mirabilis 1287 = conditions: P. mira 1287
Procedure: as §1, §2

[4] = system: Salmonella enteritidis IFO 3313; conditions: S. ent 3313
Procedure: as §1, §2

Micrococcus luteus ML II = conditions: M. lute ML II
Procedure: as §1, §2

[5] = system: Pseudomonas aeruginosa 99; conditions: P. aeru 99
Procedure: as §1, §2

Escherichia coli D 21 = system: Escherichia coli D 21
Procedure: as §1, §2

[6] = system: Streptococcus hemolyticus; conditions: S. hemo
Procedure: as §1, §2

[7] = system: Pseudomonas aeruguinosa OT 97; conditions: P. aeru OT 97
Procedure: as §1, §2

## RWKIFKKIEKMGRNIRDGIVKAGPAIEVLGSAKAI-NH2 [Synthetic lepidopteran A, lepidopteran A, reference compound]
Proteus mirabilis 129; Table 1
  MIC: 32 µg/mL
Proteus mirabilis 129; Table 2
  MIC: 32 µg/mL
Escherichia coli NIHJ; Table 1
  MIC: 4 µg/mL
Escherichia coli NIHJ; Table 2
  MIC: 4 µg/mL
[1]; Table 1
  MIC: 8 µg/mL
[1]; Table 2
  MIC: 8 µg/mL
Pseudomonas aeruginosa; Table 1
  MIC: 8 µg/mL
Pseudomonas aeruginosa; Table 2
  MIC: 8 µg/mL
[2]; Table 1
  MIC: 32 µg/mL
[2]; Table 2
  MIC: 32 µg/mL
[3]; Table 1
  MIC: 8 µg/mL
[3]; Table 2
  MIC: 125 µg/mL
E. coli JC-2; Table 1
  MIC: 4 µg/mL
E. coli JC-2; Table 2
  MIC: 4 µg/mL
Proteus mirabilis 1287; Table 1
  MIC: 32 µg/mL
Proteus mirabilis 1287; Table 2
  MIC: 32 µg/mL
[4]; Table 1
  MIC: 4 µg/mL
[4]; Table 2
  MIC: 4 µg/mL
Micrococcus luteus ML II; Table 1
  MIC: 2 µg/mL
Micrococcus luteus ML II; Table 2
  MIC: 2 µg/mL
[5]; Table 1
  MIC: 8 µg/mL
[5]; Table 2
  MIC: 8 µg/mL
Escherichia coli D 21; E. coli D 21, Table 1
  MIC: 2 µg/mL
Escherichia coli D 21; E. coli D, Table 2
  MIC: 2 µg/mL
[6]; Table 1
  MIC: -- (Symbol "--" is meant to be MIC > 250 mcg/ml)
[6]; Table 2
  MIC: -- (Symbol "--" is meant to be MIC > 250 mcg/ml)
[7]; Table 1
  MIC: 8 µg/mL
[7]; Table 2
  MIC: 8 µg/mL
